{"source": "patent US8378059B2", "about": "“Supramolecular handcuffs in polymeric architecture” (Cambridge Enterprise Ltd., priority 2007, dated 2013)", "key": {"[1]": {"test": "solubility of hydrophobic guest in water, observed by 1H NMR", "assay_type": "physicochemical"}, "[2]": {"settings": "Hwang et al. J. Am. Chem. Soc. 2007; cited from earlier work"}, "[3]": {"settings": "aqueous environment; cited from earlier work"}}, "data": [{"compound": "CCCCCCCCCCCCCCCCCC[n+]1ccc(-c2cc[n+](C)cc2)cc1", "note": "[Viologen 3, Octadecyl methyl viologen]", "values": [{"measurement": "change in solubility in water", "setting": "[1]; addition of CB[8] to a solution of Np-PEG5k and 3", "value": "increase in solubility"}, {"measurement": "water solubility", "setting": "[1]; guest alone", "value": "only sparingly water-soluble"}]}, {"compound": "cucurbit[7]uril [CB[7]]", "values": [{"measurement": "Ka, 1:1 complex with ferrocene derivatives", "setting": "[2]", "value": "≈ 10^12 M^−1"}]}, {"compound": "Cucurbit[8]uril", "values": [{"measurement": "association constants (Ka), simultaneous binding of two organic guest molecules", "setting": "[3]", "value": "≈ 10^11 M^−2"}]}]}
